As a reminder, the IC50 is the concentration at which inhibition is half-maximal. Low readings indicate greater potency in that assay, high ones weaker potency in that assay.

Experimental findings from US20250179047A1, “5-[7-(3,4-DIHYDRO-1H-ISOQUINOLINE-2-CARBONYL)-1,2,3,4 TETRAHYDROISOQUINOLIN-6-YL]-1H-PYRROLE-3-CARBOXAMIDE DERIVATIVES, PHARMACEUTICAL COMPOSITIONS CONTAINING THEM AND THEIR USES AS PRO-APOPTOTIC AGENTS” (LES LABORATOIRES SERVIER, priority 2022, published 2025) are described below.

For one test, the target named is BCL2 WT (Homo sapiens (Human), UniProt P10415). In words: TR-FRET competitive binding assay, BCL2 WT. The settings on record: Ki determined from IC50, read-out: TR_FRET EKI_Bcl2 WT. In outline: (§1)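 Ki derived from IC50 (11-point dilution, 520/495 nm emission ratio) for displacing a fluorescein-labelled PUMA peptide (2 or 20 nM). Target was 0.5 nM E. coli-expressed Halo-tagged BCL2 (1-207) or BCLXL (2-196), terbium-labelled on Halo. Incubation 2 h at 23°C in pH 7.5 Hepes with 150 mM NaCl and 5% DMSO.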
(In general: Time-resolved FRET reads energy transfer from a long-lived donor to a nearby acceptor.)

The target in test [1] is BCL2 G101V (Homo sapiens, UniProt P10415, G101V). In words: TR-FRET competitive binding assay, BCL2 G101V. The settings on record: BCL2 G101V; Ki determined from IC50; read-out: TR_FRET EKI_Bcl2 G101V. In outline: as §1
Test [2] has as its system BCL2 G101V. Nature of the test: TR-FRET competitive binding assay, BCL2 G101V. On the set-up: species or system human. The settings on record: ratio Ki BCL2 G101V / Ki BCL2 WT. In outline:
as §1

The target of another test is BCL2 D103Y (Homo sapiens, UniProt P10415, D103Y). In words: TR-FRET competitive binding assay, BCL2 D103Y. The settings on record: Ki determined from IC50, read-out: TR_FRET EKI_Bcl2 D103Y. In short, it runs like this: as §1
Another test deals with BCLXL WT (Homo sapiens (Human), UniProt Q07817). In words: TR-FRET competitive binding assay, BCLXL WT. The settings on record: for pKi: BCLXL WT, Ki determined from IC50, read-out: TR_FRET EKI BclxL; for TR_FRET EKI BCLxL/WT selectivty ratio: ratio Ki BCLxL / Ki BCL2 WT. In short, it runs like this:
as §1

A further test deals with KMS-12-PE Bcl-2 WT. In words: In vitro cytotoxicity CellTiter-Glo 48 h, KMS-12-PE Bcl-2 WT. Type of test: cell-based. The settings on record: Homo sapiens, KMS-12-PE, C50 = concentration needed to reach 50% of the cellular viability. In short, it runs like this:
(§2)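 Viability measured by CellTiter-Glo luminescence after 48 h compound exposure (11-point curve, 37 °C, 5% CO2). Cells: KMS-12-PE transduced with wild-type or G101V-mutant Bcl-2, FACS-sorted for TagRFP. Reported C50 = concentration reaching 50% cellular viability.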
For orientation: Cellular ATP, detected with luciferase, serves as a proxy for viable cell number.

For another test, the system named is KMS-12-PE Bcl-2 G101V. Nature of the test: In vitro cytotoxicity CellTiter-Glo 48 h, KMS-12-PE Bcl-2 G101V. It is filed as cell-based. The settings on record: for Ratio (G101V/WT): C50 KMS-12-PE Bcl-2 G101V over C50 KMS-12-PE Bcl-2 WT; for IC50: Homo sapiens, KMS-12-PE, 48 h, CellTiter-Glo, C50 = concentration needed to reach 50% of the cellular viability. In outline: as §2

Molecules are shown by their SMILES. pKi: −log10 of the molar value.

Sequence of BCLXL WT (Q07817 other isoform, or with tags, fused parts or gaps): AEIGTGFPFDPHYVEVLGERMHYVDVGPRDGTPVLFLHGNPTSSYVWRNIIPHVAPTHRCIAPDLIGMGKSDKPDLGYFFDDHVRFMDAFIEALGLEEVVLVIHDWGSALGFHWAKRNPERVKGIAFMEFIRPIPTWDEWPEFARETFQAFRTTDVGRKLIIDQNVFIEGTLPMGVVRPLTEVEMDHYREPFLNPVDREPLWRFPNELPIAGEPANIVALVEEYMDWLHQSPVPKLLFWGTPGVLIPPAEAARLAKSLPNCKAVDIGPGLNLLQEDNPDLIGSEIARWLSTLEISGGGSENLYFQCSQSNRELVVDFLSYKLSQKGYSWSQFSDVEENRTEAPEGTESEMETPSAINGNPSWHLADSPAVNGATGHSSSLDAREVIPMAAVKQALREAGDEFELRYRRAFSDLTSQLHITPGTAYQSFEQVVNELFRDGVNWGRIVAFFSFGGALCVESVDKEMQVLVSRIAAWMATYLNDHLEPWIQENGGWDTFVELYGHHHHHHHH

Consider `Cc1c(N(C(=O)c2cc(-c3cc4c(cc3C(=O)N3Cc5ccccc5C[C@H]3CN3CCCCC3)CN(C(=O)Cc3ccc(OCCN5CCN(CCF)CC5)cc3)CC4)n(C)c2C)c2ccc(O)cc2)cc(C#N)n1C` [Example 122, N-(5-cyano-1,2-dimethyl-1H-pyrrol-3-yl)-5-{2-[2-(4-{2-[4-(2-fluoroethyl)piperazin-1-yl]ethoxy}phenyl)acetyl]-7-[(3S)-3-[(piperidin-1-yl)methyl]-1,2,3,4-tetrahydroisoquinoline-2-carbonyl]-1,2,3,4-tetrahydroisoquinolin-6-yl}-N-(4-hydroxyphenyl)-1,2-dimethyl-1H-pyrrole-3-carboxamide], for which the pKi on BCL2 WT was 10.30; on BCL2 G101V [1], 9.52; on BCL2 D103Y it was 9.89; on BCLXL WT, 8.43. In the test on BCL2 G101V [2], the “TR_FRET EKI G101V/WT selectivty ratio” value was found to be 5.1. Further, the “TR_FRET EKI BCLxL/WT selectivty ratio” value at BCLXL WT stood at 69.8. In addition, the IC50 with KMS-12-PE Bcl-2 WT came out at 0.0167 µM; in the test with KMS-12-PE Bcl-2 G101V, 0.0662 µM. Moreover, in the test with KMS-12-PE Bcl-2 G101V, the “Ratio (G101V/WT)” value was 3.96.

In the case of `Cc1c(C(=O)N(c2ccc(O)cc2)c2cc(C#N)n(C(F)F)c2C)cc(-c2cc3c(cc2C(=O)N2Cc4ccccc4C[C@H]2CN2CCCCC2)CN(C(=O)Cc2ccc(OCCN4C[C@@H](C)O[C@@H](C)C4)cc2)CC3)n1C` [Example 129, N-[5-cyano-1-(difluoromethyl)-2-methylpyrrol-3-yl]-5-{2-[2-(4-{2-[cis-2,6-dimethylmorpholin-4-yl]ethoxy}phenyl)acetyl]-7-{[(3S)-3-(piperidin-1-ylmethyl)-3,4-dihydro-1H-isoquinolin-2-yl]carbonyl}-3,4-dihydro-1H-isoquinolin-6-yl}-N-(4-hydroxyphenyl)-1,2-dimethylpyrrole-3-carboxamide], the pKi on BCL2 WT was 9.82; on BCL2 G101V [1] it was 9.10; at BCL2 D103Y, 9.62; at BCLXL WT, 7.84. Moreover, the “TR_FRET EKI G101V/WT selectivty ratio” value in the test with BCL2 G101V [2] is 5.5. The “TR_FRET EKI BCLxL/WT selectivty ratio” value on BCLXL WT stood at 96.0. Besides, the IC50 in the test with KMS-12-PE Bcl-2 WT was determined as 0.014 µM; with KMS-12-PE Bcl-2 G101V, 0.0632 µM. In addition, the “Ratio (G101V/WT)” value with KMS-12-PE Bcl-2 G101V is reported as 4.5143.

On to `Cc1c(N(C(=O)c2cc(-c3cc4c(cc3C(=O)N3Cc5ccccc5C[C@H]3CN3CCC(F)(F)CC3)CN(C(=O)Cc3ccc(OCCN5CCOCC5)cc3F)CC4)n(C)c2C)c2ccc(O)cc2)cc(C#N)n1C` [Example 130, N-(5-cyano-1,2-dimethyl-1H-pyrrol-3-yl)-5-{7-[(3S)-3-[(4,4-difluoropiperidin-1-yl)methyl]-1,2,3,4-tetrahydroisoquinoline-2-carbonyl]-2-(2-{2-fluoro-4-[2-(morpholin-4-yl)ethoxy]phenyl}acetyl)-1,2,3,4-tetrahydroisoquinolin-6-yl}-N-(4-hydroxyphenyl)-1,2-dimethyl-1H-pyrrole-3-carboxamide], for which the pKi at BCL2 WT is 9.40; at BCL2 G101V [1], 8.64; on BCL2 D103Y it was 8.88; at BCLXL WT, 8.21. The “TR_FRET EKI G101V/WT selectivty ratio” value in the test on BCL2 G101V [2] amounted to 5.8. In addition, on BCLXL WT, the “TR_FRET EKI BCLxL/WT selectivty ratio” value turned out to be 15.3. Also, the IC50 in the test on KMS-12-PE Bcl-2 WT was 0.0055 µM; in the test with KMS-12-PE Bcl-2 G101V it was 0.0258 µM. Besides, the “Ratio (G101V/WT)” value with KMS-12-PE Bcl-2 G101V was 4.69.

As to `Cc1c(N(C(=O)c2cc(-c3cc4c(cc3C(=O)N3Cc5ccccc5C[C@H]3CN3CCCCC3)CN(C(=O)Cc3ccc(CCN5CCC(F)(F)CC5)cc3)CC4)n(C)c2C)c2ccc(O)cc2)cc(C#N)n1C` [Example 131, N-(5-cyano-1,2-dimethylpyrrol-3-yl)-5-[2-(2-{4-[2-(4,4-difluoropiperidin-1-yl)ethyl]phenyl}acetyl)-7-{[(3S)-3-(piperidin-1-ylmethyl)-3,4-dihydro-1H-isoquinolin-2-yl]carbonyl}-3,4-dihydro-1H-isoquinolin-6-yl]-N-(4-hydroxyphenyl)-1,2-dimethylpyrrole-3-carboxamide], the pKi at BCL2 WT was 9.64; on BCL2 G101V [1] it was 8.82; at BCL2 D103Y, 9.28; on BCLXL WT, 8.06. Moreover, the “TR_FRET EKI G101V/WT selectivty ratio” value in the test on BCL2 G101V [2] was 6.5. Besides, at BCLXL WT, the “TR_FRET EKI BCLxL/WT selectivty ratio” value was 37.8. Also, the IC50 in the test with KMS-12-PE Bcl-2 WT is 0.0361 µM; in the test on KMS-12-PE Bcl-2 G101V it was 0.244 µM. Besides, the “Ratio (G101V/WT)” value in the test with KMS-12-PE Bcl-2 G101V is on record as 6.759.

Take `Cc1c(N(C(=O)c2cc(-c3cc4c(cc3C(=O)N3Cc5ccccc5C[C@H]3CN3CCCCC3)CN(C(=O)Cc3ccc(OC(C)(C)CN5CCOCC5)cc3)CC4)n(C)c2C)c2ccc(O)cc2)cc(C#N)n1C` [Example 132, N-(5-cyano-1,2-dimethyl-1H-pyrrol-3-yl)-N-(4-hydroxyphenyl)-1,2-dimethyl-5-{2-[2-(4-{[2-methyl-1-(morpholin-4-yl)propan-2-yl]oxy}phenyl)acetyl]-7-[(3S)-3-[(piperidin-1-yl)methyl]-1,2,3,4-tetrahydroisoquinoline-2-carbonyl]-1,2,3,4-tetrahydroisoquinolin-6-yl}-1H-pyrrole-3-carboxamide]: the pKi was 9.85 on BCL2 WT, 8.54 at BCL2 G101V [1], 9.43 on BCL2 D103Y and 7.92 on BCLXL WT. The “TR_FRET EKI G101V/WT selectivty ratio” value in the test on BCL2 G101V [2] turned out to be 20.4. Further, the “TR_FRET EKI BCLxL/WT selectivty ratio” value on BCLXL WT came out at 85.7. In addition, the IC50 with KMS-12-PE Bcl-2 WT amounted to 0.066 µM; in the test on KMS-12-PE Bcl-2 G101V, 0.48 µM. Moreover, the “Ratio (G101V/WT)” value with KMS-12-PE Bcl-2 G101V amounted to 7.2727.

Regarding `Cc1c(N(C(=O)c2cc(-c3cc4c(cc3C(=O)N3Cc5ccccc5C[C@H]3CN3CCCCC3)CN(C(=O)COc3ccccc3)CC4)n(C)c2C)c2ccc(O)cc2)cc(C#N)n1C` [Example 133, N-(5-cyano-1,2-dimethyl-1H-pyrrol-3-yl)-N-(4-hydroxyphenyl)-1,2-dimethyl-5-[2-(2-phenoxyacetyl)-7-[(3S)-3-[(piperidin-1-yl)methyl]-1,2,3,4-tetrahydroisoquinoline-2-carbonyl]-1,2,3,4-tetrahydroisoquinolin-6-yl]-1H-pyrrole-3-carboxamide], the pKi is 10.15 on BCL2 WT, 9.22 at BCL2 G101V [1], 9.42 at BCL2 D103Y and 8.72 at BCLXL WT. The “TR_FRET EKI G101V/WT selectivty ratio” value in the test on BCL2 G101V [2] came out at 9.4. The “TR_FRET EKI BCLxL/WT selectivty ratio” value on BCLXL WT was found to be 29.2. In addition, the 50% inhibitory concentration (IC50) was determined as 0.01 µM in the test on KMS-12-PE Bcl-2 WT and 0.0556 µM with KMS-12-PE Bcl-2 G101V. For the same compound, in the test on KMS-12-PE Bcl-2 G101V, the “Ratio (G101V/WT)” value came to 5.59.

In the case of `CCN(CC)C[C@@H]1Cc2ccccc2CN1C(=O)c1cc2c(cc1-c1cc(C(=O)N(c3ccc(O)cc3)c3cc(C#N)n(C)c3C)c(C)n1C)CCN(C(=O)Cc1ccc(OCCN3CCOCC3)cc1F)C2` [Example 137, N-(5-cyano-1,2-dimethyl-1H-pyrrol-3-yl)-5-{7-[(3S)-3-[(diethylamino)methyl]-1,2,3,4-tetrahydroisoquinoline-2-carbonyl]-2-(2-{2-fluoro-4-[2-(morpholin-4-yl)ethoxy]phenyl}acetyl)-1,2,3,4-tetrahydroisoquinolin-6-yl}-N-(4-hydroxyphenyl)-1,2-dimethyl-1H-pyrrole-3-carboxamide], the pKi at BCL2 WT was 10.22; on BCL2 G101V [1], 9.52; on BCL2 D103Y it was 9.80; at BCLXL WT it was 8.85. For the same compound, the “TR_FRET EKI G101V/WT selectivty ratio” value with BCL2 G101V [2] worked out at 4.6. The “TR_FRET EKI BCLxL/WT selectivty ratio” value at BCLXL WT is given as 23.7. In addition, the figures for the half-inhibitory concentration (IC50) in the test on KMS-12-PE Bcl-2 WT and with KMS-12-PE Bcl-2 G101V were 0.0148 µM and 0.0487 µM, respectively. Also, in the test with KMS-12-PE Bcl-2 G101V, the “Ratio (G101V/WT)” value is 3.2905.
